SMILES strings stand for the structures.

In turn, `Nc1nc(-c2ccsc2)ns1` came in with a melting point of 172 to 174 °C.

`Nc1nnc(-c2ccc(F)cc2F)o1` had a melting point of 232 to 234 °C.

`CC(NC(N)=O)C(=O)O` (stereo not drawn) yielded a melting point of 171 to 173 °C. In the case of `c1cc(-c2ccsc2)n[nH]1` it was 110 to 112 °C; in that of `CC(=O)Nc1ccc(S(=O)(=O)N(C)CC(=O)O)cc1`, 225 to 227 °C; in that of `CC(C)(C)OC(=O)Nc1snnc1C(=O)O`, 139 to 141 °C.

`CCC(Br)C(=O)c1ccc(OC)cc1` (stereo not drawn) displayed a melting point of 49 to 51 °C. To `NC(=O)N1CCOCC1` belongs 106 to 108 °C; to `Cc1ccc(Nc2nnc(S)s2)cc1C`, 181 to 183 °C.

As to `CC(O)c1ccc(N(C)Cc2ccccn2)c(F)c1` (stereo not drawn), the melting point lay within 73 to 75 °C. In the case of `O=C(O)C(=O)Cc1ccc(Cl)c(Cl)c1` it was 169 to 171 °C; in that of `Cn1c(=O)c2ccccc2n2c(CCl)nnc12`, 228 to 229 °C.

The molecule `NS(=O)(=O)Cc1c(F)cccc1F` registered a melting point of 153 to 155 °C. For `CC(Sc1ncccc1C(=O)O)C(=O)N1CCCC1` (stereo not drawn), the melting point is 192 to 194 °C. With `NC(=S)NCC1CCC1`, the melting point lay within 123 to 125 °C. In the case of `CNc1ccc([N+](=O)[O-])c2nonc12` it was 257 to 259 °C; in that of `COc1ccccc1-n1cnnc1S`, 204 to 206 °C; in that of `Oc1cccc2ccc(N3CCCC3)nc12`, 85 to 87 °C. In the case of `CNS(=O)(=O)c1ccc(-c2ccccc2OC(F)(F)F)c(C(=O)O)c1` it was 172 to 174 °C; in that of `c1ccc(NCc2ccc3c(c2)OCO3)cc1`, 78 to 80 °C; in that of `O=C(O)C1CSCCS1` (stereo not drawn), 58 to 60 °C. In the case of `O=C(Nc1ccccn1)OCC(F)(F)F` it was 150 to 152 °C. `O=C(O)CCc1csc2nc(C3CC3)cn12` registered a melting point of 240 to 242 °C. `NS(=O)(=O)c1ccc(OCC(=O)O)c(F)c1`: the melting point fell in the range of 177 to 179 °C. In the case of `Nc1ncc2c(n1)CCN(Cc1ccccc1)C2` it was 179 to 181 °C; in that of `Cc1nc(O)c2c(n1)CN(Cc1ccccc1)CC2`, 211 to 213 °C; in that of `N#Cc1ccc(N2CCNCC2)c(F)c1`, 84 to 86 °C.

For `CCOC(=O)c1nc(C)n[nH]1`, the melting point lay in the range of 184 to 186 °C. In turn, `COc1ccc(NS(=O)(=O)c2cccc(N)c2)cc1` had a melting point of 109 to 111 °C. `Nc1ccn(Cc2ncccn2)n1` showed a melting point of 100 to 102 °C. In the case of `CNC(=O)c1ccc(NC)c([N+](=O)[O-])c1` it was 207 to 209 °C. To `NC(=S)N1CCc2sccc2C1` belongs 109 to 111 °C; to `O=C(c1ccc(Cl)cc1)N1CCNCC1`, 80 to 82 °C.

With `NCCc1cc2ccccc2[nH]1`, the melting point lay within 95 to 97 °C. To `O=C(CCl)N1CCN(S(=O)(=O)c2ccc([N+](=O)[O-])cc2)CC1` belongs 187 to 189 °C; to `CS(=O)(=O)c1cccc(NN)c1`, 93 to 95 °C; to `CCCc1cc(N)n(C)n1`, 68 to 70 °C. In the case of `O=C(O)c1cccc(S(=O)(=O)NCC2CCCO2)c1` (stereo not drawn) it was 157 to 161 °C. In the case of `NC(=O)Nc1ccc(CC(=O)O)cc1` it was 179 to 182 °C. For `O=C(O)CCc1nnc[nH]1`, the melting point is 127 to 129 °C. In the case of `CCN(CC)C(=O)Cn1cccc(C(=O)O)c1=O` it was 114 to 116 °C.

In turn, `Cc1cc(C(C)(C)C)cc(C)c1S(=O)(=O)N1CCNCC1` yielded a melting point of 124 to 126 °C. In the case of `Cc1c([N+](=O)[O-])cc(C(=O)O)cc1S(=O)(=O)Cl` it was 176 to 178 °C.

Regarding `O=C(O)c1ccc2ncc(I)n2c1`, the melting point lay within 254 to 256 °C. In the case of `Cc1[nH]c(=O)sc1S(=O)(=O)N1CCCC1C(=O)O` (stereo not drawn) it was 247 to 249 °C; in that of `CC(C)(C(=O)O)c1ccc(N)cc1`, 165 to 167 °C; in that of `O=C(O)C1CCc2cn[nH]c2C1` (stereo not drawn), 234 to 236 °C.

`COCCC(NC(C)=O)C(=O)O` (stereo not drawn) returned a melting point of 152 to 154 °C. In the case of `S=C1NCCO1` it was 95 to 97 °C; in that of `O=C(CCl)NCC(=O)c1ccccc1Br`, 103 to 105 °C; in that of `Cc1oc(C(=O)O)cc1S(=O)(=O)Cl`, 114 to 116 °C. In the case of `CC(Cl)C(=O)Nc1ccc2c(c1)OCO2` (stereo not drawn), the melting point was 168 to 170 °C. `FC(F)(F)C1(NCc2ccccc2)CCC2(CC1)OCCO2` displayed a melting point of 83 to 85 °C.

Molecule `Brc1ccc2ncnc(N3CCNCC3)c2c1` returned a melting point of 99 to 101 °C. In the case of `Nc1ccc(N2CCNC(=O)C2)nc1` it was 136 to 138 °C; in that of `N#Cc1cccnc1NCc1ccccc1Cl`, 111 to 113 °C; in that of `CS(=O)(=O)c1ccc2c(c1)CCCN2`, 112 to 114 °C. In the case of `O=C(O)c1ccc(NC(=O)c2ccco2)cc1` it was 132 to 134 °C; in that of `CC(C)c1nnn[nH]1`, 104 to 106 °C. To `FC(F)n1ccnc1CN1CCNCC1` belongs 73 to 75 °C. In turn, `COc1ccc(C(=O)CNC(=O)CCC(=O)O)cc1` came in with a melting point of 167 to 169 °C. To `O=C(Nc1ccc(O)cc1)c1ccco1` belongs 218 to 220 °C. To `Cc1ccccc1-n1c(S)nnc1-c1ccncc1` belongs 280 to 282 °C; to `N#Cc1cc([N+](=O)[O-])ccc1N1CCC(C(=O)O)CC1`, 161 to 163 °C; to `Cc1nn(C)cc1CCC(=O)O`, 114 to 116 °C.

In turn, `COc1ccc(N2CCC2=O)cc1` returned a melting point of 103 to 105 °C.

For the molecule `Nc1c(C(=O)O)cc(F)cc1[N+](=O)[O-]`, the melting point was 219 to 221 °C. In the case of `CC(=O)c1ccc(OC2CCCCC2)c(F)c1` it was 48 to 50 °C; in that of `CN1CCN(c2ccc(N)nc2)CC1`, 119 to 121 °C; in that of `CCC1(C)NC(=O)N(N)C1=O` (stereo not drawn), 153 to 155 °C. `O=C1OC(=O)c2cc(F)c(F)cc21`: the melting point was in the range of 94 to 96 °C. In the case of `CCOc1ccc(-c2csc(N)n2)cc1` it was 248 to 250 °C; in that of `NNC(=O)C(F)(F)Oc1ccccc1`, 76 to 78 °C; in that of `CC(C)N(C)S(=O)(=O)c1cccc(C(=O)O)c1`, 168 to 170 °C. `NS(=O)(=O)c1ccccc1S(=O)(=O)Cl`: the melting point was 179 to 181 °C.

For the molecule `Cc1nc(-c2cc(C(=O)O)cs2)cs1`, the melting point lay within 226 to 228 °C. To `COc1ccccc1CC(C)(C)C(=O)O` belongs 44 to 46 °C; to `NC(=O)c1ccc(Cl)cc1O`, 188 to 190 °C; to `CSC(=CC(=O)c1ccccc1)SC`, 92 to 94 °C. In the case of `Oc1ccc2ccc(C(F)(F)F)nc2c1` it was 255 to 257 °C. For the molecule `CCc1sc(C(=O)O)cc1C`, the melting point lay within 98 to 100 °C. In the case of `CCN(CC)S(=O)(=O)c1ccc(Cl)c(N)c1` it was 84 to 88 °C; in that of `O=C1CNc2cccc(F)c2N1`, 161 to 163 °C; in that of `COC(=O)c1sc(N)c(C(=O)OC)c1CBr`, 163 to 165 °C. In the case of `O=C(O)C1CC1C(=O)O` (stereo not drawn) it was 177 to 179 °C; in that of `CC(=O)CC(=O)Nc1ccc(C(C)C)cc1`, 68 to 70 °C. `O=C(O)c1csc(Cc2ccc(F)cc2)n1` yielded a melting point of 149 to 151 °C. To `OCc1nc(-c2ccccc2)cs1` belongs 87 to 89 °C.

The record behind these values is a melting point compilation (Tetko et al.).
